This is an account of results in patent US10906900B2, “Compounds for using in imaging and particularly for the diagnosis of neurodegenerative diseases” (CENTRE NATIONAL DE LA RECHERCHE SCIENTIFIQUE, priority 2016, dated 2021).

For data set [1], the target named is Aβ1-42 fibers (Homo sapiens, UniProt P05067). Briefly: In vitro direct determination of Kd and Bmax by fluorescence, Aβ1-42 fibers. In kind it is binding. To be noted: for Aβ Bmax1: density of binding sites; for Aβ Bmax1 / Kd: direct fluorescence, Scatchard analysis; for Kd: Aβ1-42 fibers 500 nM, read-out: Aβ Kd1; for Aβ Bmax1 (number of sites/monomer): in brackets in the Bmax cell. On the procedure: (§1) To obtain fiber assembly, α-syn is incubated in Tris-HCl 50 mM pH7.5, KCl 150 mM at 37° C. under continuous agitation during 4 days. The lyophilized Aβ1-42 was dissolved in 1,1,1,3,3,3-Hexafluoro-2-propanol (HFIP) at 0.2 mg/mL and incubated for 24 h at 37° C. to obtain the complete solubilization. The HFIP is evaporated under nitrogen stream to obtain a dry product. To start the fiber assembly, the dry peptide is resuspended in PBS pH7.4, 10% (v/v) DMSO and incubated at 37° C. for 3 days without agitation.
(§2) Fresh solutions of each test compound (2.5 mM in DMSO) are diluted in PBS pH=7.4 at concentrations between 0.5 nM and 5 μM in the presence or absence of α-syn (200 nM), Aβ1-42 (500 nM) or Tau (200 nM) fibers in a final 2 mL volume. After 1 h of incubation at RT, the binding of each compound to α-syn, A131-42 or Tau fibers is measured by fluorescence using the spectral changes of the compounds during their binding to the fibers, using the appropriate excitation/emission wavelengths (those giving the highest fluorescence variation during binding to the fibres). For each concentration of compound added to the fibres, the bound and free fractions are measured by fluorescence according to the following equation: Fm=FBB+FF×(T−B)
(§3) The value of FF is determined by measuring the fluorescence of known concentrations of compounds in the absence of fibres. The FB value is determined by measuring the maximum fluorescence of known concentrations of compounds in the presence of saturated concentrations of α-syn, Aβ1-42, or Tau fibers.
(§4) The values of B thus determined versus the concentrations of the free fractions (T-B) are analyzed according to the Michaelis-Menten equation. The affinity (Kd) and density of binding sites within the fibers of α-syn, Aβ1-42 or Tau (Bmax) are determined by Scatchard analysis, which also makes it possible to highlight multiple site classes.

Data set [2] addresses Tau fibres (Homo sapiens (Human), UniProt P10636). The experiment in a line: In vitro inhibition of ThT binding and determination of Ki (fluorescence), Tau fibres. On the procedure: (§5) Tau protein in PBS buffer containing 1 mM DTT is assembled into fiber in the presence of one twelfth of a molar equivalent of heparin at 37° C. under stirring.
(§6) The samples are incubated for 1 h at room temperature (RT) to reach equilibrium. […] From each curve, the IC50 value is measured using the following equation: Y=min+(max−min)/1+([…])^slope

In data set [3] the target is Aβ1-42 fibres (Homo sapiens, UniProt P05067). The experiment in a line: In vitro inhibition of ThT binding and determination of Ki (fluorescence), Aβ1-42 fibres. To be noted: vs Thioflavin T 500 nM; Aβ1-42 fibres 500 nM; PBS pH7.4, 1 h RT; read-out: Ki Aβ. On the procedure:
as §1
(§7) Protein fibers are systematically observed by electron microscopy (Jeol 1400). The images are recorded with a CCD camera (Gatan Orius). Finally, the percentage of α-syn and Aβ1-42 aggregated into fibers is checked on the pellet after centrifugation at 40000×g for 20 min and determination of the concentration of soluble protein/peptide remaining in the supernatant.
as §6

Data set [4] addresses α-syn fibres (Homo sapiens (Human), UniProt P37840). Briefly: In vitro inhibition of ThT binding and determination of Ki (fluorescence), α-syn fibres. To be noted: vs Thioflavin T 500 nM; α-syn fibres 200 nM; PBS pH7.4, 1 h RT; read-out: Ki αsyn. The method, then: as §1, §7, §6
The target in data set [5] is α-syn fibers (Homo sapiens (Human), UniProt P37840). Briefly: In vitro direct determination of Kd and Bmax by fluorescence, α-syn fibers. In kind it is binding. To be noted: for αsyn Bmax1: density of binding sites; for αsyn Bmax1 / Kd: direct fluorescence, Scatchard analysis; for Kd: α-syn fibers 200 nM, read-out: αsyn Kd1; for αsyn Bmax1 (number of sites/monomer): in brackets in the Bmax cell. The method, then:
as §1, §2, §3, §4

Data set [6] addresses Tau fibers (Homo sapiens (Human), UniProt P10636). The experiment in a line: In vitro direct determination of Kd and Bmax by fluorescence, Tau fibers. In kind it is binding. To be noted: for Tau Bmax1: density of binding sites; for Tau Bmax1 / Kd: direct fluorescence, Scatchard analysis; for Kd: Tau fibers 200 nM, read-out: Tau Kd1; for Tau Bmax1 (number of sites/monomer): in brackets in the Bmax cell; for Tau selectivity according to analysis of Kd (Tables 6 and 7): selective = good affinity and at least two times greater than for at least one of the two other proteins. The method, then: Human Tau protein (isoform h2N4RTau) is expressed in the vector pET11d in E. Coli (strain BL21 (DE3), (Stratagene, La Jolla, Calif.)) and purified according to the described method (Barghorn S, Biernat J, Mandelkow E. (2005) Methods Mol Biol. 299:35-51). The Tau purified concentration is determined by measuring the absorbance at 280 nm using a molar extinction coefficient of 7450 M^−1 cm^−1.
as §5, §2
Where Fm is the fluorescence measured in the presence of fibers at a concentration T of the compound added to the fibers, FB is the specific fluorescence of the bound compound, FF is the specific fluorescence of the free compound, and B is the concentration of the fiber bound compound at a given concentration T (Bell, J. E., “Fluorescence; Solution Studies”, Spectrometry in Biochemistry, vol. I, Bell, J. E., ed., CRC Press, Inc., Boca Raton, Fla., pp. 155-194 (1981)).
as §3
Thus, at each point, the concentration of bound compound B is determined according to the following equation: B=(Fm−FF×T)/(FB−FF)
as §4

Data set [7] relates to Aβ1-42 fibers. The experiment in a line: In vitro direct determination of Kd and Bmax by fluorescence, Aβ1-42 fibers. To be noted: selective = good affinity and at least two times greater than for at least one of the two other proteins. Format: binding. The method, then:
as §1, §2, §3, §4

The nature of data set [8]: In vivo evaluation of fluorine-18-labelled tracer: PET/CT and tissue radioactivity (BBB crossing, bone fixation). To be noted: healthy adult male Wistar rat, intravenous injection of 18F tracer. On the procedure:
The objective is to determine whether the tracer has the blood-brain barrier (BBB) crossing properties in sufficient quantities to be used as a PET imaging tracer. In addition, bone fixation can be qualified, which reflects the degree of defluorination of the tracer in vivo.
Animal Model: Adult male rats of Wistar strain.
In vivo study: the healthy animal receives an intravenous injection of the tracer test (molecule 28).
From the moment of injection, imaging is carried out using a dedicated system (PET/CT) which records the intracerebral accumulation of radioactivity (Sérrière et al. Nucl. Med. Biol. 2014, 41:103-13; Sérrière et al. Neurobiol. Aging 2015, 36:1639-52). At the end of the imaging, the animal is euthanized; the brain and a bone fragment (femur) are collected, weighed and their radioactivity is measured. This method allows to precisely quantify the accumulation of the tracer in the tissues. The results are expressed as a percentage of the injected tracer dose/g of tissue (% DI/g).

Structures are written as SMILES. Where two headings read alike, the source gives them in different places.

Chain of Tau fibres (P10636 other isoform, or with tags, fused parts or gaps): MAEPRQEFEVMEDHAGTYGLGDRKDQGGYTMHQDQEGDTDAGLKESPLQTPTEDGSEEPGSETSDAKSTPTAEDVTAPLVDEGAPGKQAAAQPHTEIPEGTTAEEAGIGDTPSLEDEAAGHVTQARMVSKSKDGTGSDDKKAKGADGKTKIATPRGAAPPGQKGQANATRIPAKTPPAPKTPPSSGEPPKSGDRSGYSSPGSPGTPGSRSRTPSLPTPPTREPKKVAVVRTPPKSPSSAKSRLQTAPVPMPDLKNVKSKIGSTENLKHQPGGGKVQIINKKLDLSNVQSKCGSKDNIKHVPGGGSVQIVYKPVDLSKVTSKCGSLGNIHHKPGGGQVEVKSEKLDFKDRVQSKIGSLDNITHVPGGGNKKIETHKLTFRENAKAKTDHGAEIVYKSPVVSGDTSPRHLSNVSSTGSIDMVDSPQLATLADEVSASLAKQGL
Chain of Tau fibers (P10636 other isoform, or with tags, fused parts or gaps): as above
Chain of Aβ1-42 fibers (Homo sapiens, UniProt P05067) (P05067 672-713 limits assumed): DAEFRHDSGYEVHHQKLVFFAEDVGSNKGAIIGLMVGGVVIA
Chain of Aβ1-42 fibres (P05067 672-713 limits assumed): as above

In general, Ki refers to the dissociation constant of the complex between target and ligand, obtained from inhibition or displacement. With `CN(C)c1ccc(C#Cc2cc3ncccc3[nH]2)cc1` [Compound 22c, 4-((1H-Pyrrolo[3,2-b]pyridin-2-yl)ethynyl)-N,N-dimethylaniline], in data set [1], the “Aβ Bmax1” value was determined as 1.44 ± 0.6 nmol/μmol prot, the Kd was determined as 2.9 ± 2 nM and the “Aβ Bmax1 (number of sites/monomer)” value is reported as 1/700. Also, in data set [2], the Ki turned out to be 12 ± 1 nM. Moreover, in data set [2] (selective = good affinity and at least two times greater than for at least one of the two other proteins), the “Tau selectivity according to analysis of Ki (Table 5)” value is “selective”. Besides, the Ki in data set [3] is 21.3 ± 7 nM. Besides, in data set [4], the Ki was determined as 26 ± 16 nM. In data set [5], the “αsyn Bmax1” value was found to be 82.5 ± 5 nmol/μmol prot, the Kd came out at 3.25 ± 0.2 nM and the “αsyn Bmax1 (number of sites/monomer)” value is reported as 1/12. Moreover, in data set [6], the “Tau Bmax1” value was 26.5 ± 5 nmol/μmol prot; the Kd came out at 0.13 ± 0.05 nM; the “Tau Bmax1 (number of sites/monomer)” value was 1/40; the “Tau selectivity according to analysis of Kd (Tables 6 and 7)” value is given as “selective”.

Take `CN(CCF)c1ccc(C#Cc2cc3cccnc3[nH]2)cc1` [Compound 28, 4-((1H-Pyrrolo[2,3-b]pyridin-2-yl)ethynyl)-N-(2-fluoroethyl)-N-methylaniline]: in data set [1], the “Aβ Bmax1” value is on record as 1.8 ± 0.6 nmol/μmol prot, the Kd is 1.2 ± 1 nM and the “Aβ Bmax1 (number of sites/monomer)” value was 1/600. In addition, the “Aβ selectivity according to analysis of Kd (Tables 6 and 7)” value in data set [7] is “selective”. Moreover, the “Passing of the BBB: brain accumulation, percentage of injected tracer dose/g of tissue” value in data set [8] (brain collected at end of imaging) is given as “≈ 0.4 % DI/g”. For the same compound, the “binding to bone: femur accumulation, percentage of injected tracer dose/g of tissue” value in data set [8] (femur at end of imaging, reflects defluorination) is on record as 0.3 % DI/g. In addition, in data set [5], the “αsyn Bmax1” value is given as 141.5 ± 45 nmol/μmol prot, the Kd worked out at 2.4 ± 1 nM and the “αsyn Bmax1 (number of sites/monomer)” value is 1/7. Further, in data set [6], the “Tau Bmax1” value is listed as 46.5 ± 5 nmol/μmol prot; the Kd was found to be 0.97 ± 0.4 nM; the “Tau Bmax1 (number of sites/monomer)” value is 1/20; the “Tau selectivity according to analysis of Kd (Tables 6 and 7)” value was “selective”.

With `CC(=C(C#N)C#N)c1ccc2cc(N(C)CCF)ccc2c1` [FDDNP, reference compound], in data set [1], the “Aβ Bmax1” value was 10.2 ± 1 nmol/μmol prot, the Kd came out at 4.2 ± 1 nM and the “Aβ Bmax1 (number of sites/monomer)” value is 1/100. The Ki in data set [2] (vs Thioflavin T 500 nM, Tau fibres 200 nM, PBS pH7.4, 1 h RT) amounted to 9.5 ± 1 nM. In addition, in data set [3], the Ki is 4.6 ± 3 nM. Also, the Ki in data set [4] stood at 25.1 ± 5 nM. In data set [5], the “αsyn Bmax1” value turned out to be 39.5 ± 10 nmol/μmol prot, the Kd is 16.1 ± 6 nM and the “αsyn Bmax1 (number of sites/monomer)” value is 1/25. In addition, in data set [6], the “Tau Bmax1” value came to 138.5 ± 16 nmol/μmol prot, the Kd turned out to be 34.9 ± 6 nM and the “Tau Bmax1 (number of sites/monomer)” value is reported as 1/7.
